Broadly, the EC50 is the concentration needed to bring the measured effect to its halfway point. Low values mean greater potency, high ones weaker potency. As a reminder, the Ki is a measure of affinity in units of concentration, obtained from inhibition or displacement.

In patent US8802704B2, “Oxadiazole derivatives” (Merck Serono SA, priority 2009, dated 2014) one finds EC50 and Ki data, which are given here for 16 molecules.

Like-named read-outs stand apart in the source and are kept apart here.

Experiment [1] deals with T1, S1P1 (Homo sapiens, UniProt P21453). The experiment in a line: S1P1 internalization assay in S1P1-U2OS cells (cell imaging). Type of experiment: cell-based. The note with it: U2OS cells expressing S1P1-EGFP, 1 hour. As to the method:
Cellular functional assays: Internalization of Sphingosine-1-phosphate receptor 1 (S1P1) in a human Cell line (U2OS) in a 384-well format using a Cell Imaging analysis.
The S1P1 internalization assay was performed in 384 well plates (Corning® 384 black with clear bottom 3712) using S1P1-U2OS cells from Biolmage (C039A), a human epithelial cell line (Human Bone Osteosarcoma Epithelial Cells). These cells expressed the human S1P1 Receptor fused to the green fluorescent protein (EGFP). A standard CMV promoter (cytomegalovirus promoter) controls the expression of S1P1-EGFP and continuous expression was maintained by addition of geneticin to the culture medium.
S1P1Receptor desensitization induced the internalization of the membrane-localized S1P1-EGFP fusion protein to endosomes, which can be monitored by cell imaging analysis. The cells are plated in low serum medium (Dulbecco's Modified Eagle Medium (DMEM) with Glutamax-1 and high glucose, 1% Penicillin/Streptomycin, 1% Fetal Calf Serum (FCS), 0.5 mg/ml Geneticin) overnight.
The next day, S1P1-U2OS cells are incubated in 20 μl serum free medium (DMEM with Glutamax-1 and high glucose, 0.1% of fatty-acid free Bovin Serum Albumin (BSA), 10 mM, N′-2-Hydroxyethylpiperazine-N′-2 ethanesulphonic acid (HEPES) 1M) for 2 hours at 37° C./5% CO2. The cells are then treated with 4 μl compounds/agonists (6×/3% DMSO) for a total volume of 24 μl, and plates are incubated for 1 hour at 37° C./5% CO2.
S1P1-U2OS cells are fixed with 25 μl Paraformaldehyde 8% and stained with Hoechst 33345 dye (1:1000) for 20 minutes.
They were then washed 3 times with Phosphate Buffered Saline (PBS) and plates are sealed. The internalization of the receptor S1P1-EGFP is measured on Cellomics by calculating the “spot count per object” (“object” corresponds to nuclear and “spot” corresponds to S1P1-EGFP receptor). Internalization data were observed thanks to vHCS View and analyzed using Genedata® software.
Target sequence in this assay (P21453 whole entry): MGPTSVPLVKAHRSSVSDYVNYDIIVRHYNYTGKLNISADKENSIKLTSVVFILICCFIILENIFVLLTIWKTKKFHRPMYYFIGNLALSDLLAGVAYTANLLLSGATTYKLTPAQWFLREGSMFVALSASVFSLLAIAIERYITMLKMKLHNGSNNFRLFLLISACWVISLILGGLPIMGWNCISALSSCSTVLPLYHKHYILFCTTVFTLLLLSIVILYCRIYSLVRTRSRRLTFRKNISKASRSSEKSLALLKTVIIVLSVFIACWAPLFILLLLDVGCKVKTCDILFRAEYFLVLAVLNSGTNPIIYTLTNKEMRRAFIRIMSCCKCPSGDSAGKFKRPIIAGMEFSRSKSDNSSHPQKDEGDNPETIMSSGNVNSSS

Experiment [2] concerns the target T1, S1P1. The experiment in a line: Receptor binding assay, [33P]sphingosine 1-phosphate competition (SPA), S1P1. The note with it: 384 well-plate; read-out: S1P1 binding Ki (M) (384 well-plate). As to the method: Cells were suspended in 50 mM TRIS, pH 7.4, 2 mM EDTA, 250 mM Sucrose (buffer A) and 1× Complete protease inhibitor cocktail (Roche), and disrupted at 4° C. by N2 decompression using a cell disruption bomb (Parr Instrument). […] The pellet was then suspended in 10 mM HEPES, pH 7.4, 1 mM EDTA, 250 mM Sucrose (Buffer B), and 1× Complete EDTA-free protease inhibitor cocktail and homogenized using a potter. Membranes were flash frozen in liquid N2 and stored at −80° C.
[33P]sphingosine 1-phosphate (3000 Ci/mmol; American Radiolabeled Chemicals, Inc.) was added to test compounds in 20% DMSO by competition. […] Triplicate samples were averaged and normalized as percentage of inhibition relative to total binding (only DMSO in well) and non-specific binding (1000-fold excess of unlabeled S1P). Binding data were analyzed using the GraphPad Prism program or Genedata software.
Target sequence in this assay (P21453 whole entry, species assumed): as the sequence (P21453 whole entry) above

For experiment [3], the target named is S1P3 (Homo sapiens, UniProt Q99500). The experiment can be described thus: Receptor binding assay, [33P]sphingosine 1-phosphate competition (SPA), S1P3. How it is done: Membranes were prepared from CHO cells expressing S1P1 or S1P3 for use in ligand and […] binding studies. Cells were suspended in 50 mM TRIS, pH 7.4, 2 mM EDTA, 250 mM Sucrose (buffer A) and 1× Complete protease inhibitor cocktail (Roche), and disrupted at 4° C. by N2 decompression using a cell disruption bomb (Parr Instrument). Following centrifugation at 1000 RPM for 10 min at 4° C., the supernatant was diluted (2×) in buffer A and centrifuged again at 19000 RPM for 75 min at 4° C. The pellet was then suspended in 10 mM HEPES, pH 7.4, 1 mM EDTA, 250 mM Sucrose (Buffer B), and 1× Complete EDTA-free protease inhibitor cocktail and homogenized using a potter. Membranes were flash frozen in liquid N2 and stored at −80° C.
Sequence of S1P3 (Q99500 whole entry, species assumed): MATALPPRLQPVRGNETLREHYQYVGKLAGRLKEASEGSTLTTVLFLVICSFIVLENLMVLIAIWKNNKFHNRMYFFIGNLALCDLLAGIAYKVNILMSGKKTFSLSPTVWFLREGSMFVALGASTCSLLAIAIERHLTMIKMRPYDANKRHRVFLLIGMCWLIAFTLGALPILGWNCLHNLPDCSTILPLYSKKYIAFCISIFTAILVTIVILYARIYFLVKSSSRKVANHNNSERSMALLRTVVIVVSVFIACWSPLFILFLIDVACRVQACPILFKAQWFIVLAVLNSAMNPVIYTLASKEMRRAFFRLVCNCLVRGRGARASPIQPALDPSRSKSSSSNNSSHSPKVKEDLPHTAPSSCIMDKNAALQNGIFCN
[33P]sphingosine 1-phosphate (3000 Ci/mmol; American Radiolabeled Chemicals, Inc.) was added to test compounds in 20% DMSO by competition. Membranes and WGA SPA beads (GE Healthcare) were added to give a final volume of 100 μl in 96-well plates or 50 μl in 384-well plates with assay concentrations of 30 pM or 15 pM [33P]sphingosine 1-phosphate (respectively for S1P1 or S1P3), 50 mM HEPES, pH 7.5, 5 mM MgCl2, 100 mM NaCl, 0.4% fatty acid-free BSA, 1-5 μg/well of proteins in 96-well plates vs 0.6-1 μg/well of proteins in 384-well plates and 100 μg/well of WGA SPA beads in 96-well plates vs 75 μg/well of WGA SPA beads in 384-well plates. Binding was performed for 60 min at RT on a shaker and bound radioactivity was measured on a PerkinElmer 1450 MicroBeta counter. Triplicate samples were averaged and normalized as percentage of inhibition relative to total binding (only DMSO in well) and non-specific binding (1000-fold excess of unlabeled S1P). Binding data were analyzed using the GraphPad Prism program or Genedata software.

[4] abbreviates: 96 well-plate, read-out: S1P3 binding Ki (M) (96 well-plate).
The mark [5] stands for this setting: 384 well-plate, read-out: S1P3 binding Ki (M) (384 well-plate).

As to `Cc1cc(-c2nc(-c3cccc(CN(C)CC(=O)O)c3)no2)ccc1-c1ccccc1C(F)(F)F` [Example 101, N-methyl-N-(3-{5-[2-methyl-2′-(trifluoromethyl)biphenyl-4-yl]-1,2,4-oxadiazol-3-yl}benzyl)glycine], in experiment [1], a half-maximal effect (EC50) was put at 69.3 nM. The figures for the Ki in experiment [2], in experiment [3] (setting [4]) and in experiment [3] (setting [5]) were 5.63e-09 M, 9.43e-06 M and 6.59e-06 M, respectively.
`Cc1cc(CN(C)CC(=O)O)ccc1-c1noc(-c2ccc(-c3ccccc3C)c(C(F)(F)F)c2)n1` [Example 103, 2-(methyl(3-methyl-4-(5-(2′-methyl-2-(trifluoromethyl)biphenyl-4-yl)-1,2,4-oxadiazol-3-yl)benzyl)amino)acetic acid] registered a half-maximal effective concentration (EC50) in experiment [1] of 17.7 nM. The inhibition constant Ki in experiment [2] was determined as 1.45e-09 M; in experiment [3] (setting [4]), 4.12e-07 M; in experiment [3] (setting [5]), 4.68e-07 M.
In experiment [1], `Cc1cc(-c2nc(-c3cc(F)cc(CN(C)CC(=O)O)c3)no2)ccc1-c1ccccc1C(F)(F)F` [Example 104, N-(3-fluoro-5-{5-[2-methyl-2′-(trifluoromethyl)biphenyl-4-yl]-1,2,4-oxadiazol-3-yl}benzyl)-N-methylglycine] yielded an EC50 of 15 nM. Moreover, the Ki in experiment [2] was 8.98e-09 M; in experiment [3] (setting [5]) it was 2.14e-06 M.
As for `COCc1cc(-c2nc(-c3ccc(CN(C)CC(=O)O)c(C(F)(F)F)c3)no2)ccc1-c1ccccc1C` [Example 105], the EC50 in experiment [1] was 74.9 nM. The results for the Ki in experiment [2], in experiment [3] (setting [4]) and in experiment [3] (setting [5]) were 3.3e-09 M, 1.83e-06 M and 1.88e-06 M, respectively.
For the molecule `CCc1ccccc1-c1ccc(-c2nc(-c3ccc(CN(C)CC(=O)O)cc3)no2)cc1C(F)(F)F` [Example 109, N-(4-{5-[2′-ethyl-2-(trifluoromethyl)biphenyl-4-yl]-1,2,4-oxadiazol-3-yl}benzyl)-N-methylglycine], a half-maximal response in experiment [1] (EC50) required 11.9 nM. The results for the Ki in experiment [2] and in experiment [3] (setting [5]) were 1.5e-09 M and 2.93e-07 M, respectively.
Turning to `Cc1ccccc1-c1ccc(-c2nc(-c3cccc(CN(C)CC(=O)O)c3F)no2)cc1C(F)(F)F` [Example 112, N-(2-fluoro-3-{5-[2′-methyl-2-(trifluoromethyl)biphenyl-4-yl]-1,2,4-oxadiazol-3-yl}benzyl)-N-methylglycine], the response in experiment [1] was half-maximal at 6.26 nM (EC50). Also, the Ki is 4.95e-10 M in experiment [2], 1.49e-07 M in experiment [3] (setting [4]) and 1.92e-07 M in experiment [3] (setting [5]).
`Cc1ccccc1-c1ccc(-c2nc(-c3ccc(CN(CC(=O)O)C(C)C)cc3)no2)cc1C(F)(F)F` [Example 113, (Isopropyl-{4-[5-(2′-methyl-2-trifluoromethyl-biphenyl-4-yl)-[1,2,4]oxadiazol-3-yl]-benzyl}-amino)-acetic acid]: the EC50 in experiment [1] is 24.8 nM. The Ki in experiment [2] was 2.9e-09 M; in experiment [3] (setting [4]) it was 2.17e-06 M; in experiment [3] (setting [5]) it was 2.7e-06 M.
In turn, `COCc1cc(-c2nc(-c3cccc(CN(C)CC(=O)O)c3F)no2)ccc1-c1ccccc1C(F)(F)F` [Example 114, N-(2-fluoro-3-{5-[2-(methoxymethyl)-2′-(trifluoromethyl)biphenyl-4-yl]-1,2,4-oxadiazol-3-yl}benzyl)-N-methylglycine] had an EC50 in experiment [1] of 15.6 nM. Moreover, the Ki was 1.91e-09 M in experiment [2], 1.09e-06 M in experiment [3] (setting [4]) and 9.14e-07 M in experiment [3] (setting [5]).
For `CCOc1cc(-c2nc(-c3ccc(CN(C)CC(=O)O)cc3)no2)ccc1-c1ccccc1C(F)(F)F` [Example 115, N-(4-{5-[2-ethoxy-2′-(trifluoromethyl)biphenyl-4-yl]-1,2,4-oxadiazol-3-yl}benzyl)-N-methylglycine] the same measures were 9.03 nM, 2.15e-09 M, 6.68e-07 M and 2.21e-06 M.
In experiment [1], `Cc1ccccc1-c1ccc(-c2nc(-c3ccc(CN(C)CCCC(=O)O)cc3)no2)cc1C(F)(F)F` [Example 116, 4-[methyl(4-{5-[2′-methyl-2-(trifluoromethyl)biphenyl-4-yl]-1,2,4-oxadiazol-3-yl}benzyl)amino]butanoic acid] registered an EC50 of 3.65 nM. Also, the Ki in experiment [2] was found to be 1.33e-09 M; in experiment [3] (setting [4]), 3.33e-07 M; in experiment [3] (setting [5]), 1.31e-06 M.
For `Cc1cc(-c2nc(-c3ccc(CN(C)CC(=O)O)c(F)c3)no2)ccc1-c1ccccc1C(F)(F)F` [Example 123, N-(2-fluoro-4-{5-[2-methyl-2′-(trifluoromethyl)biphenyl-4-yl]-1,2,4-oxadiazol-3-yl}benzyl)-N-methylglycine], the concentration for a half-maximal effect (EC50) in experiment [1] was 30.4 nM. Further, the Ki in experiment [2] worked out at 3.46e-09 M; in experiment [3] (setting [5]), 6.9e-06 M.
Consider `Cc1ccccc1-c1ccc(-c2nc(-c3ccc(CN(C)CC(=O)O)c(Cl)c3)no2)cc1C(F)(F)F` [Example 129, 2-((4-(5-(2-(trifluoromethyl)-2′-methylbiphenyl-4-yl)-1,2,4-oxadiazol-3-yl)-2-chlorobenzyl)(methyl)amino)acetic acid], for which a half-maximal response in experiment [1] (EC50) required 23.3 nM. For the same molecule, the Ki is 5.33e-09 M in experiment [2] and 9.76e-07 M in experiment [3] (setting [5]).
As to `CN(CC(=O)O)Cc1ccc(-c2noc(-c3ccc(-c4ccccc4C(F)(F)F)c(Cl)c3)n2)cc1F` [Example 134, N-(4-{5-[2-chloro-2′-(trifluoromethyl)biphenyl-4-yl]-1,2,4-oxadiazol-3-yl}-2-fluorobenzyl)-N-methylglycine], the half-maximal effective concentration (EC50) in experiment [1] came to 37.3 nM. The Ki is 4.07e-09 M in experiment [2] and 1.8e-05 M in experiment [3] (setting [5]).
Turning to `CN(CC(=O)O)Cc1cc(F)cc(-c2noc(-c3ccc(-c4ccccc4C(F)(F)F)c(Cl)c3)n2)c1` [Example 136, N-(3-{5-[2-chloro-2′-(trifluoromethyl)biphenyl-4-yl]-1,2,4-oxadiazol-3-yl}-5-fluorobenzyl)-N-methylglycine], the response in experiment [1] was half-maximal at 40.9 nM (EC50). The Ki worked out at 4.27e-09 M in experiment [2] and 2.32e-06 M in experiment [3] (setting [5]).
Consider `COCCN(CC(=O)O)Cc1ccc(-c2noc(-c3ccc(-c4ccccc4C)c(C(F)(F)F)c3)n2)cc1` [Example 138, N-(2-methoxyethyl)-N-(4-{5-[2′-methyl-2-(trifluoromethyl)biphenyl-4-yl]-1,2,4-oxadiazol-3-yl}benzyl)glycine], for which the EC50 in experiment [1] stood at 26.1 nM. Moreover, the Ki in experiment [2] came to 5.16e-09 M; in experiment [3] (setting [5]), 4.79e-07 M.
Regarding `Cc1ccccc1-c1ccc(-c2nc(-c3ccc(CN(C)CC(=O)O)cc3Cl)no2)cc1C(F)(F)F` [Example 145, 2-((4-(5-(2-(trifluoromethyl)-2′-methylbiphenyl-4-yl)-1,2,4-oxadiazol-3-yl)-3-chlorobenzyl)(methyl)amino)acetic acid], in experiment [1], the EC50 amounted to 9.44 nM. For the same molecule, the Ki is 2.22e-09 M in experiment [2] and 2.85e-07 M in experiment [3] (setting [5]).
